In brackets after ≈: the same amount, converted by molar mass.
Assays:
[1] = Plasma stability assay in human plasma; assay type: in vitro ADME; conditions: 10 μM prodrug, 37° C., prodrug remaining at 30 min compared to 0 min
Procedure: (§1) The degradation of prodrug and formation of active drug of present invention were monitored by current plasma stability assay. The assay is conducted in human plasma (purchased from Bioreclamation, Lot No. BRH1380385) or mouse plasma (prepared in-house using CD-1 mouse purchased from Vital River). Plasma is spiked with the test prodrug (10 μM final concentration) dissolved in DMSO (or water) and incubated at 37° C. Aliquots are removed at 0, 5, 15 and 30 minutes of incubation time, quenched with appropriate volume of internal standard solution (I.S., 0.2 μM of tolbutamide, prepared in ACN and water (1:1, v/v)), according to the mass spectrometer intensity of both analytes. Samples are centrifuged, the supernatant are removed and analyzed by LC-MS/MS. The degradation of prodrug was illustrated by calculation of percent remaining of prodrug at 30 min compared to that at 0 min (Table 2).

[2] = Lyophilisation Solubility Assay (LYSA); assay type: physicochemical; conditions: aqueous buffer, thermodynamic from solid; 0.05 M phosphate buffer, pH 6.5
Procedure: The solubility of compounds of present invention was assessed by LYSA assay. Samples were prepared in duplicate from 10 mM DMSO stock solutions (20 μL) diluted in 30 μL pure DMSO. After evaporation of DMSO with a centrifugal vacuum evaporator, the residue was dissolved in 0.05 M phosphate buffer (150 μL, pH 6.5), which was stirred for one hour and shook for two hours. After one night, the solution was filtered using a microtiter filter plate. Then the filtrate and its 1/10 dilution were analyzed by HPLC-UV. In addition, a four-point calibration curve was prepared from the 10 mM stock solutions and used for the solubility determination of the compounds.

[3] = Plasma stability assay in mouse plasma; assay type: in vitro ADME, CD-1 mouse; conditions: 10 μM prodrug, 37° C., prodrug remaining at 30 min compared to 0 min
Procedure: as §1

S. aureus (ATCC29213) = assay: 50% Growth Inhibitory Concentration (IC50) Determination Assay, S. aureus; assay type: cell-based; conditions: Staphylococcus aureus, growth inhibition, Iso-Sensitest broth, OD 600 nm over 16 h
Procedure: (§2) The in vitro antimicrobial activity of the compounds against S. aureus (ATCC29213), K. pneumoniae (ATCC10031), and A. baumannii (ATCC17978), was determined according to the following procedure: The assay used a 10-points Iso-Sensitest broth medium to measure quantitatively the in vitro activity of the compounds against S. aureus ATCC29213, K. pneumoniae ATCC 10031, and A. baumannii ATCC 17978. Stock compounds in DMSO were serially two-fold diluted (range from 50 to 0.097 μM final concentration) in 384 wells microtiter plates and inoculated with 49 μL the bacterial suspension in Iso-Sensitest broth medium to have a final cell concentration of 5×10^5 CFU/mL in a final volume/well of 50 μL/well. Microtiter plates were incubated at 35±2° C. Bacterial cell growth was determined with the measurement of optical density at λ=600 nm each 20 minutes over a time course of 16 h. Growth inhibition was calculated during the logarithmic growth of the bacterial cells with determination of the concentration inhibiting 50% (IC50) of the growth. The parent compounds of the present invention were tested for their concentration inhibiting 50% (IC50). The data of IC50 over S. aureus (ATCC29213), K. pneumoniae (ATCC10031), and A. baumannii (ATCC17978) are illustrated in Table 6.

A. baumannii (ATCC17978) = assay: 50% Growth Inhibitory Concentration (IC50) Determination Assay, A. baumannii; assay type: cell-based; conditions: Acinetobacter baumannii, growth inhibition, Iso-Sensitest broth, OD 600 nm over 16 h
Procedure: as §2

[4] = test system: K. pneumoniae (ATCC10031); assay: 50% Growth Inhibitory Concentration (IC50) Determination Assay, K. pneumoniae; assay type: cell-based; conditions: Klebsiella pneumoniae, growth inhibition, Iso-Sensitest broth, OD 600 nm over 16 h
Procedure: as §2

Structure (SMILES)	Percent Remaining (%) H [1] [%]	solubility [2] [µg/mL]	Percent Remaining (%) M [3] [%]	IC50 (S. aureus (ATCC29213)) [nM]	IC50 (A. baumannii (ATCC17978)) [nM]	IC50 [4] [nM]
CNc1cc(F)c(C#N)c2c1[nH]c1ncc(-c3cnc4c(c3)c(=O)c(C(=O)O)cn4C)c(N3CC[C@H]4CN(C)C[C@H]43)c12 [Example 1.03D, 6-[5-cyano-6-fluoro-8-(methylamino)-4-[(3aS,6aS)-5-methyl-2,3,3a,4,6,6a-hexahydropyrrolo[2,3-c]pyrrol-1-yl]-9H-pyrido[2,3-b]indol-3-yl]-1-methyl-4-oxo-1,8-naphthyridine-3-carboxylic acid]		194 (≈ 342 µM)		< 98	45	< 98
CNc1cc(F)c(C#N)c2c3c(N4CC[C@H]5CN(C)C[C@H]54)c(-c4cnc5c(c4)c(=O)c(C(=O)O)cn5C)cn(COP(=O)(O)O)c-3nc12 [Example 1.04, 6-[5-Cyano-6-fluoro-8-(methylamino)-1-(phosphonooxymethyl)-4-[(3aS,6aS)-5-methyl-2,3,3a,4,6,6a-hexahydropyrrolo[2,3-c]pyrrol-1-yl]pyrido[2,3-b]indol-3-yl]-1-methyl-4-oxo-1,8-naphthyridine-3-carboxylic acid]	95.9	> 950	79.1			
CNc1cc(F)c(C#N)c2c1[nH]c1ncc(-c3cnc4c(c3)c(=O)c(C(=O)OCCOC(=O)[C@@H](N)C(C)C)cn4C)c(N3CC[C@H]4CN(C)C[C@H]43)c12 [Example 1.08, 2-[(2S)-2-Amino-3-methyl-butanoyl]oxyethyl 6-[5-cyano-6-fluoro-8-(methylamino)-4-[(3aS,6aS)-5-methyl-2,3,3a,4,6,6a-hexahydropyrrolo[2,3-c]pyrrol-1-yl]-9H-pyrido[2,3-b]indol-3-yl]-1-methyl-4-oxo-1,8-naphthyridine-3-carboxylate]	22.3	480 (≈ 676 µM)	1.3			
CNc1cc(F)c(C#N)c2c1[nH]c1ncc(-c3cnc4c(c3)c(=O)c(C(=O)OCc3oc(=O)oc3C)cn4C)c(N3CC[C@H]4CN(C)C[C@H]43)c12 [Example 1.13, (5-Methyl-2-oxo-1,3-dioxol-4-yl)methyl 6-[5-cyano-6-fluoro-8-(methylamino)-4-[(3aS,6aS)-5-methyl-2,3,3a,4,6,6a-hexahydropyrrolo[2,3-c]pyrrol-1-yl]-9H-pyrido[2,3-b]indol-3-yl]-1-methyl-4-oxo-1,8-naphthyridine-3-carboxylate]	1.9		0.6			
CC(=O)OC(C)OC(=O)N(C)c1cc(F)c(C#N)c2c1[nH]c1ncc(-c3cnc4c(c3)c(=O)c(C(=O)O)cn4C)c(N3CC[C@H]4CN(C)C[C@H]43)c12 (stereo partly drawn) [Example 1.15, 6-[8-[1-Acetoxyethoxycarbonyl(methyl)amino]-5-cyano-6-fluoro-4-[(3aS,6aS)-5-methyl-2,3,3a,4,6,6a-hexahydropyrrolo[2,3-c]pyrrol-1-yl]-9H-pyrido[2,3-b]indol-3-yl]-1-methyl-4-oxo-1,8-naphthyridine-3-carboxylic acid]	50.5		4.7			
CNc1cc(F)c(F)c2c1[nH]c1ncc(-c3ccc4ccc(C(=O)O)c(=O)n4c3)c(N3CC[C@H]4CN(C)C[C@H]43)c12 [Example 1.34D, 7-[5,6-difluoro-8-(methylamino)-4-[(3aS,6aS)-5-methyl-2,3,3a,4,6,6a-hexahydropyrrolo[2,3-c]pyrrol-1-yl]-9H-pyrido[2,3-b]indol-3-yl]-4-oxo-quinolizine-3-carboxylic acid]		54 (≈ 99.2 µM)		< 98	< 98	< 98
CNc1cc(F)c(F)c2c1[nH]c1ncc(-c3ccc4ccc(C(=O)OC(C)OC(=O)OC(C)C)c(=O)n4c3)c(N3CC[C@H]4CN(C)C[C@H]43)c12 (stereo partly drawn) [Example 1.39, 1-Isopropoxycarbonyloxyethyl 7-[5,6-difluoro-8-(methylamino)-4-[(3aS,6aS)-5-methyl-2,3,3a,4,6,6a-hexahydropyrrolo[2,3-c]pyrrol-1-yl]-9H-pyrido[2,3-b]indol-3-yl]-4-oxo-quinolizine-3-carboxylate]	98.4		0.1			

Continued, values first:

Percent Remaining (%) H [1] [%]	solubility [2] [µg/mL]	Percent Remaining (%) M [3] [%]	IC50 (S. aureus (ATCC29213)) [nM]	IC50 (A. baumannii (ATCC17978)) [nM]	IC50 [4] [nM]	Structure (SMILES)
88.2	> 895	70.2				CN1C[C@@H]2CCN(c3c(-c4cnc5c(c4)c(=O)c(C(=O)O)cn5C)cnc4[nH]c5c(N(C)C(=O)OCOC(=O)/C=C/C(=O)O)cc(F)c(C#N)c5c34)[C@@H]2C1 [Example 1.02, 6-[5-Cyano-6-fluoro-8-[methyl-[[(E)-3-carboxyprop-2-enoyl]oxymethoxycarbonyl]amino]-4-[(3aS,6aS)-5-methyl-2,3,3a,4,6,6a-hexahydropyrrolo[2,3-c]pyrrol-1-yl]-9H-pyrido[2,3-b]indol-3-yl]-1-methyl-4-oxo-1,8-naphthyridine-3-carboxylic acid]
67.2		72.0				CN1C[C@H]2CCN(c3c(-c4cnc5c(c4)c(=O)c(C(=O)O)cn5C)cnc4[nH]c5c(N(C)C(=O)OCOP(=O)(O)O)cc(F)c(F)c5c34)[C@H]2C1 [Example 1.18, 6-[5,6-Difluoro-8-[methyl(phosphonooxymethoxycarbonyl)amino]-4-[(3aR,6aR)-5-methyl-2,3,3a,4,6,6a-hexahydropyrrolo[2,3-c]pyrrol-1-yl]-9H-pyrido[2,3-b]indol-3-yl]-1-methyl-4-oxo-1,8-naphthyridine-3-carboxylic acid]
88.7		56.0				CN1C[C@H]2CCN(c3c(-c4cnc5c(c4)c(=O)c(C(=O)O)cn5C)cnc4[nH]c5c(N(C)C(=O)OCOC(=O)/C=C/C(=O)O)cc(F)c(F)c5c34)[C@H]2C1 [Example 1.21, 6-[5,6-Difluoro-8-[methyl-[[(E)-3-carboxyprop-2-enoyl]oxymethoxycarbonyl]amino]-4-[(3aR,6aR)-5-methyl-2,3,3a,4,6,6a-hexahydropyrrolo[2,3-c]pyrrol-1-yl]-9H-pyrido[2,3-b]indol-3-yl]-1-methyl-4-oxo-1,8-naphthyridine-3-carboxylic acid]
	137 (≈ 245 µM)		< 98	39	< 98	CNc1cc(F)c(F)c2c1[nH]c1ncc(-c3cnc4c(c3)c(=O)c(C(=O)O)cn4C)c(N3CC[C@H]4CN(C)C[C@H]43)c12 [Example 1.26E, 6-[5,6-difluoro-8-(methylamino)-4-[(3aS,6aS)-5-methyl-2,3,3a,4,6,6a-hexahydropyrrolo[2,3-c]pyrrol-1-yl]-9H-pyrido[2,3-b]indol-3-yl]-1-methyl-4-oxo-1,8-naphthyridine-3-carboxylic acid]

— patent US20210221832A1, “SUBSTITUTED PYRIDOINDOLES FOR THE TREATMENT AND PROPHYLAXIS OF BACTERIAL INFECTION” (Hoffmann-La Roche Inc., priority 2018, published 2021)
